From ChEMBL document CHEMBL1138531, “Pharmacokinetics of penicillin G in infants with a gestational age of less than 32 weeks” (Antimicrob Agents Chemother, 2007)

What was measured:
Assay type in all cases: ADME, organism-based
[1] = Volume of distribution in neonates; conditions: human, in vivo
[2] = Clearance in preterm neonates with septicemia or invasive infections with gestational age of less than 32 weeks at 50000 U/kg, iv administered every 12 hrs; conditions: human, in vivo
[3] = Volume of distribution in central compartment in preterm neonates with septicemia or invasive infections with gestational age of less than 32 weeks at 50000 U/kg, iv administered every 12 hrs; conditions: human, in vivo, read-out: Vc
[4] = test system: Homo sapiens; assay: Apparent peripheral volume of distribution in preterm neonates with septicemia or invasive infections with gestational age of less than 32 weeks at 50000 U/kg, iv administered every 12 hrs; conditions: in vivo
[5] = test system: Homo sapiens; assay: Intercompartmental clearance in preterm neonates with septicemia or invasive infections with gestational age of less than 32 weeks at 50000 U/kg, iv administered every 12 hrs; conditions: in vivo
[6] = Volume of distribution at steady state in preterm neonates with septicemia or invasive infections with gestational age of less than 32 weeks at 50000 U/kg, iv administered every 12 hrs; conditions: human, in vivo, read-out: Vdss
[7] = Elimination half life in preterm neonates with septicemia or invasive infections with gestational age of less than 32 weeks at 50000 U/kg, iv administered every 12 hrs; conditions: human, in vivo, read-out: beta t1/2 (converted)
[8] = Clearance in iv dosed neonates with gestational age of 27 to 40 weeks; conditions: human, in vivo
[9] = Volume of distribution in iv dosed neonates with gestational age of 27 to 40 weeks; conditions: human, in vivo
[10] = Half life in iv dosed neonates with gestational age of 27 to 40 weeks; conditions: human, in vivo

Compound | Vd [1] | clearance [2] | Vd [3] | Vp/F [4] | CL [5] | Vd [6] | half-life [7] | clearance [8] | Vd [9] | half-life [10]
CC1(C)S[C@@H]2[C@H](NC(=O)[C@H](N)c3ccccc3)C(=O)N2[C@H]1C(=O)O [AMPICILLIN] | 0.3 L/kg |  |  |  |  |  |  |  |  | 
CC1(C)S[C@@H]2[C@H](NC(=O)Cc3ccccc3)C(=O)N2[C@H]1C(=O)O [PENICILLIN G] | 0.45 L/kg | 1.72 mL/min | 0.359 L | 0.152 L | 0.774 L/h | 0.54 L | 3.9 h | 2 mL/min/kg | 0.61 L/kg | 3.8 h
CC1(C)S[C@@H]2[C@H](NC(=O)[C@H](N)c3ccc(O)cc3)C(=O)N2[C@H]1C(=O)O [AMOXICILLIN] | 0.41 L/kg |  |  |  |  |  |  |  |  | 
